Test results taken from patent publication US5360794A, “Disubstituted and deoxy disubstituted derivatives of α-D-mannofuranosides and β-L-gulofuranosides having anti-inflammatory and anti-proliferative activity” (Medicarb Inc., priority 1992, dated 1994).

Tests used:
[1] = system: T-lymphocytes (BALB/cBYJ responder spleen cells with mitomycin C treated C57BL/6J stimulator spleen cells); assay: Mixed lymphocyte response (MLR); format: cell-based, mouse; conditions: estimated IC50, 5 days at 37° C., MTT, 1, 10, 30, 100, and 300 μM
From the text: i Mixed lymphocyte response (MLR).
(§1) The MLR assay measures the effects of a study compound on the activation and antigen presentation of T-lymphocytes, therefore determining immunomodulatory properties. The mouse spleen cell mitogen-induced blastogenesis and the BUD-8 human fibroblast proliferation assays measure the effects of the compounds of the present invention on cellular proliferation of cells involved in the pathogenesis of autoimmune diseases. These two assays are appropriate as screens to ascertain anti-inflammatory and/or autoimmune beneficial activity and are art accepted for such purposes.
The MLR is a classical assay used to measure T cell function by studying the proliferation response of T cells which are activated in vitro by genetically disparate stimulator cells. This is accomplished by co-culturing spleen cells from two different strains of mice. Splenic T cell proliferation occurs as a result of cellular activation signals generated by the ongoing cellular interactions.
In performing MLR assays, BALB/cBYJ mice were euthanized by cervical dislocation and their spleens removed. Single cell suspensions were prepared in culture medium (RPMI-1640 with hepes supplemented with 10% calf serum, 2 mM glutamine, 500 units penicillin/streptomycin, and 4×10^-5 M 2-mercaptoethanol) using a Teflon pestle. The cells were centrifuged at 1500 RPM and the pellets resuspended in ACT (0.15M Tris, 0.14M ammonium chloride, pH 7.2) in order to lyse the red blood cells. After a 5 minute incubation at 37° C. in a waterbath, the cells were washed and resuspended in culture medium. The splenic lymphocytes were counted. C57BL/6J spleen cells, which were used as stimulator cells, were prepared in the same way. The stimulator cells were treated with 50 μg/ml of mitomycin C for 20 minutes at 37° C., then washed five times in culture medium. The proliferative response were measured by culturing 5×10^5 responder spleen cells with […] in 96-well microtiter plates in the presence or absence of test article or vehicle (DMSO). Syngeneic control cultures using mitomycin C treated normal BALB/c spleen cells as the stimulator cells were also run. All cultures were run in triplicate.
Solutions of compounds of the present invention in DMSO were prepared at a stock concentration of 300 mM. Solutions were made in a culture medium to a concentration of 1, 10, 30, 100, and 300 μM. The vehicle DMSO was used as a negative control.
After incubation for 5 days at 37° C. with 5% carbon dioxide, the amount of cell proliferation was measured by adding 20 μl of MTT (10 mg/ml in PBS) (3-[4,5-dimethylthiazol-2-yl]-2,5-diphenyl-tetrazolium bromide) to each well. Plates were incubated for 4 hours at 37° C., after which 180 μl of supernatant was removed and 180 μl of 10% SDS in PBS was added. After an overnight incubation, the optical density (OD) of each well was read on a Molecular Devices microplate reader at 570-650 nm.
The results were determined by calculating the difference between the means of the allogeneic cultures and the means of the syngeneic cultures for each test compound concentration. Differences of the test article groups were compared to the difference of the control group. The percent change from the control was determined and an IC50 estimated. The criteria used to establish activity levels were:
Sixteen (16) novel compounds were assayed for their ability to modulate a Mixed Lymphocyte Response in vitro. The test compounds were added to MLR cultures to give final concentrations of 1, 10, 30, 100, and 300 μM. The responses observed in the test article treated wells were compared to the control wells. […] Based on the estimated IC50, all the test compounds were strong inhibitors of the MLR.

[2] = system: mouse spleen cells (T-lymphocyte response to Con-A); assay: Concanavalin A assay (mouse spleen cell mitogen induced blastogenesis); format: cell-based; conditions: estimated IC50, Con-A 1.25 μg/ml, 3 days, MTT
From the text: iii Concanavalin A assay (the mouse spleen cell mitogen induced blastogenesis).
as §1
It is known that the induction and maintenance of most inflammatory diseases are typically due to the unrestricted activity of T-lymphocytes. Therefore, it is advantageous to identify compounds which are modulators of T-lymphocyte activity for eventual use in the regulation of inflammatory diseases, including acquired immune deficiency syndrome, psoriasis, systemic lupus, erythromatosus, and rheumatoid arthritis.
A simple method is used to screen compounds for their ability to modulate T-lymphocyte activity which comprises assessing the capacity of the compounds to alter the activation of murine spleen cells in response to T-lymphocyte mitogen activators, such as Conconavalin-A (Con-A). The method used to measure the effects of the compounds of the present invention on the blastogenic response of spleen cells to the T-lymphocyte mitogen (Con-A) is as follows:
The response of a mouse spleen cells to the T cell mitogen Con-A is a classical assay. In this assay, mice were euthanized by cervical dislocation and their spleens removed surgically. A single cell suspension of the spleens was prepared in culture medium (RPMI-1640 with hepes, supplemented with 10% calf serum, 2 mM glutamine, 500 units penicillin/streptomycin, and 4×10^-5 M 2-mercaptoethanol) using a Teflon pestle. The cells were centrifuged at 1500 RPM and the pellets resuspended in ACT (0.15M Tris, 0.14M Ammonium chloride, pH 7.2) in orde to lyse the red blood cells. After a five minutes incubation in a 37° C. waterbath, the cells were washed and resuspended in culture medium. The splenic lymphocytes were counted using an electronic Coulter Counter and diluted to 5.0×10^6 cells/ml.
The test articles were diluted in culture medium to the appropriate concentrations. 100 μl aliquots were distributed to triplicate wells in a 96-well microtiter plate. 50 μl of lymphocytes (2.5×10^5 cells) were added to each well. Control wells with vehicle and wells with media were also run. Plates were incubated for one hour at 37° C. 50 μl of Con-A ([…]) were then added to the wells to result in a final concentration of 1.25 μg/ml. After incubation at 37° C. with 5% carbon dioxide for 3 days, proliferation was measured by adding 20 μl of MTT (10 mg/mlin PBS) [3-(4,5-dimethyl-thiazol-2-yl)-2,5-diphenyl tetrazolium bromide] to each well. Plates were incubated for 4 hours at 37° C., after which 180 μl of 10% SDS in PBS were added. After an overnight incubation, the optical density (OD) of each well was read using a Molecular Devices microplate reader at 570-650 nm.
Duplicate cultures without Con-A were also set up. After 3 days of incubation, supernatants were assayed for lactate dehydrogenase activity to determine the viability of the cells, which is an indication of the toxicity of the test article on the splenic lymphocytes. 0.1 ml of supernatant was mixed with 0.1 ml of the LDH substrate mixture which contains 5.4×10^-2 M L(+) lactate, 6.6×10^-4 M 2-p-iodophenyl-3-p-nitrophenyl tetrazolium chloride, 2.8×10^-4 M phenazine methosulfate, 1.3×10^-3 M NAD, and 0.2M Tris buffer, pH 8.2. Plates were read immediately for 5 minutes at 490 nm using a Molecular Devices microplate reader.
The mean for each test article treated group was determined and compared to the mean of the control group. […]

[3] = Mus musculus, T-lymphocyte, 120 h
[4] = Mus musculus, T-lymphocyte, 72 h

Molecule	IC50 [1, 3] [µM]	IC50 [2, 4] [µM]	IC50 [1] [µM]	IC50 [2] [µM]
CCCCCCCCCOCCCO[C@H]1O[C@H]([C@H](O)CN2CCCC2)[C@@H]2OC(C)(C)O[C@H]12 [Compound 3, n-Nonyloxypropyl 2,3-O-(1-methylethylidene)-6-deoxy-pyrrolidinyl-α-D-mannofuranoside]	< 1	3.3	–	–
CCCCCCCCCOCCCO[C@H]1O[C@H]([C@H](O)CN2CCCCC2)[C@@H]2OC(C)(C)O[C@H]12 [Compound 4, n-Nonyloxypropyl 2,3-O-(1-methylethylidene)-6-deoxy-6-piperidinyl-α-D-mannofuranoside]	27	2.7	–	–
CCCCCCCCCOCCCO[C@H]1O[C@H]([C@H](O)CN2CCOCC2)[C@@H]2OC(C)(C)O[C@H]12 [Compound 5, n-Nonyloxypropyl 2,3-O-(1-methylethylidene)-6-deoxy-6-morpholinyl-α-D-mannofuranoside]	19	17	–	–
CCCCCCCCCOCCCO[C@H]1O[C@H]([C@H](O)CN2CCCCCC2)[C@@H]2OC(C)(C)O[C@H]12 [Compound 6, n-Nonyloxypropyl 2,3-O-(1-methylethylidene)-6-deoxy-6-hexamethyleneimino-α-D-mannofuranoside]	< 0.5	3.2	–	–
CCCCCCCCCOCCCO[C@H]1O[C@H]([C@H](O)CNCCCCCCC)[C@@H]2OC(C)(C)O[C@H]12 [Compound 8, n-Nonyloxypropyl 2,3-(1-methylethylidene)-6-deoxy-6-aminoheptyl-α-D-mannofuranoside]	< 1	17	–	–
CCCCCCCCCOCCCO[C@H]1O[C@H]([C@@H](C)OCCCN(C)C)[C@@H]2OC(C)(C)O[C@H]12 [Compound 10, n-Nonyloxypropyl 2,3-O-(1-methylethylidene)-6-deoxy-5-O-(N,N-dimethylaminopropyl)-α-D-mannofuranoside]	< 1	3	–	–
CCCCCCCCCOCCCO[C@H]1O[C@H]([C@@H](C)OCCN2CCCC2)[C@@H]2OC(C)(C)O[C@H]12 [Compound 12, n-Nonyloxypropyl 2,3-O-(1-methylethylidene)-6-deoxy-5-O-(N'-ethylpyrrolidinyl)-α-D-mannofuranoside]	< 0.5	3.2	–	–
CCCCCCCCCOCCCO[C@H]1O[C@H]([C@H](C)N2CCCC2)[C@@H]2OC(C)(C)O[C@H]12 [Compound 15, n-Nonyloxypropyl 5,6-dideoxy-2,3-O-(1-methylethylidene)-5-pyrrolidinyl-β-L-gulofuranoside]	0.99	2.8	–	–
CC1(C)O[C@@H]2[C@H](O1)[C@@H](OCCCc1ccccc1)O[C@@H]2[C@H](O)CN1CCCC1 [Compound 20, Phenylpropyl 6-deoxy 2,3-O-(1-methylethylidene)-6-pyrrolidinyl-α-D-mannofuranoside]	< 1	59	–	–
CCCCCCCNC[C@@H](O)[C@H]1O[C@H](OCCCc2ccccc2)[C@H]2OC(C)(C)O[C@H]21 [Compound 21, Phenylpropyl 6-deoxy 2,3-O-(1-methylethylidene)-6-heptylamino-α-D-mannofuranoside]	< 1	7	–	–
CC1(C)O[C@@H]2[C@H](O1)[C@@H](OCCCc1ccccc1)O[C@@H]2[C@H](O)CNCCCN1CCCC1 [Compound 22, Phenylpropyl 6-deoxy 2,3-O-(1-methylethylidene)-6-aminopropylpyrrolidinyl-α-D-mannofuranoside]	0.85	2.5	–	–
C[C@@H]([C@H]1O[C@H](OCCCc2ccccc2)[C@H]2OC(C)(C)O[C@H]21)N1CCCC1 [Compound 24, Phenylpropyl 5,6-dideoxy 2,3-O-(1-methylethylidene)-5-pyrrolidinyl-β-L-gulofuranoside]	< 1	28	–	–
C[C@@H](OCCCN(C)C)[C@H]1O[C@H](OCCCc2ccccc2)[C@H]2OC(C)(C)O[C@H]21 [Compound 26, Phenylpropyl 6-deoxy 2,3-O-(1-methylethylidene)-5-O-3'-(N'N'-dimethylamino-n-propyl)-α-D-mannofuranoside]	< 1	18	–	–
C[C@@H](OCCN1CCCC1)[C@H]1O[C@H](OCCCc2ccccc2)[C@H]2OC(C)(C)O[C@H]21 [Compound 27, Phenylpropyl 6-deoxy 2,3-O-(1-methylethylidene)-5-O-(N'-ethylpyrrolidinyl)-α-D-mannofuranoside]	5.8	< 3	–	–
CC1(C)O[C@@H]2[C@H](O1)[C@@H](OCCCCN1CCCC1)O[C@@H]2[C@H](O)CO [Compound 29, 4'-(1-Pyrrolidinyl)butyl 2,3-O-(1-methylethylidene)-α-D-mannofuranoside]	26	49	–	–
n-Nonyloxypropyl 2,3-O-(1-methylethylidene)-6-deoxy-6-aminothylpyrrolidinyl-α-D-mannofuranoside [Compound 7]	–	–	0.75	2.9
